# Data as given in paper PMC2386736 (Protein Science : A Publication of the Protein Society, 2009).
# Read-outs that look alike come from different tables or passages of the source.
# Tests used:
# Type in all cases: biochemical
# SENP2 [1] = biological target: T1, SENP2 (Homo sapiens, UniProt Q9HC62); assay: SUMO3-PLA2 / NBD C6-HPC coupled fluorescence isopeptidase assay
# T1 sequence (Q9HC62 366-589): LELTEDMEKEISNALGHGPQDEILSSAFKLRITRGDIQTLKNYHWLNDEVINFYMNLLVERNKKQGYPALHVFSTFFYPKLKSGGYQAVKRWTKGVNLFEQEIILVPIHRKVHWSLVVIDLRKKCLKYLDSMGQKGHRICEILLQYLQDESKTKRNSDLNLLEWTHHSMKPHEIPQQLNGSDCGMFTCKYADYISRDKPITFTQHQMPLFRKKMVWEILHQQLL
# USP7 [2] = biological target: T2, USP7 (Homo sapiens, UniProt Q93009); assay: Ub-PLA2 / NBD C6-HPC coupled fluorescence isopeptidase assay
# T2 sequence (Q93009 whole entry): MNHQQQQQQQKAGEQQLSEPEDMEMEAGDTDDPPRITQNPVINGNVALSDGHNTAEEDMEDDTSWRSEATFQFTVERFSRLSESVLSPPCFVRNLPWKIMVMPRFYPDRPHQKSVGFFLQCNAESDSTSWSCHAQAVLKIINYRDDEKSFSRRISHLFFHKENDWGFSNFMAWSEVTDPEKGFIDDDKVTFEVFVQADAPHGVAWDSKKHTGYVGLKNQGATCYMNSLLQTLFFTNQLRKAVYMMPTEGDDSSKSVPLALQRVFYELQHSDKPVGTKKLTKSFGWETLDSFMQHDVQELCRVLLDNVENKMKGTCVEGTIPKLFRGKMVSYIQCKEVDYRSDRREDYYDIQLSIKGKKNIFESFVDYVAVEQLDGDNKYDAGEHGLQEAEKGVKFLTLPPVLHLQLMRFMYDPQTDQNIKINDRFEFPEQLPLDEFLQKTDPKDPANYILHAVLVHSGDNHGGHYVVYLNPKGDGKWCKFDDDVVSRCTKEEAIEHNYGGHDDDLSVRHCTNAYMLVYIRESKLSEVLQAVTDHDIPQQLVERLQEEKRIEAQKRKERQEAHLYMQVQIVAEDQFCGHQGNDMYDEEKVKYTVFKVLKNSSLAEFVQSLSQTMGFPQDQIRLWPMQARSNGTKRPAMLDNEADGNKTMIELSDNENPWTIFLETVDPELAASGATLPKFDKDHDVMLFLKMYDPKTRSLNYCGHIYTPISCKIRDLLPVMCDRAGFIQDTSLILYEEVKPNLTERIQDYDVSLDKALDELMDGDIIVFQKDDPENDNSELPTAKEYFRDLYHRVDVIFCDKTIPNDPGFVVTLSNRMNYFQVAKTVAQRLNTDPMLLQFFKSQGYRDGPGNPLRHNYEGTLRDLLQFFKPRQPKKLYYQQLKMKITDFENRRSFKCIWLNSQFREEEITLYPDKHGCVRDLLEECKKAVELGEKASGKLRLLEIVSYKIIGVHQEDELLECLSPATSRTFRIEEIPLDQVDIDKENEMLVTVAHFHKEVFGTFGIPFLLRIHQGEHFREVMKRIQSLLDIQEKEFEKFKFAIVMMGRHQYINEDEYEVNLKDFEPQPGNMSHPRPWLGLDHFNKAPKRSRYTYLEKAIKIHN
# USP2 [3] = biological target: T3, USP2 (Homo sapiens, UniProt O75604); assay: as above
# T3 sequence (O75604 259-605): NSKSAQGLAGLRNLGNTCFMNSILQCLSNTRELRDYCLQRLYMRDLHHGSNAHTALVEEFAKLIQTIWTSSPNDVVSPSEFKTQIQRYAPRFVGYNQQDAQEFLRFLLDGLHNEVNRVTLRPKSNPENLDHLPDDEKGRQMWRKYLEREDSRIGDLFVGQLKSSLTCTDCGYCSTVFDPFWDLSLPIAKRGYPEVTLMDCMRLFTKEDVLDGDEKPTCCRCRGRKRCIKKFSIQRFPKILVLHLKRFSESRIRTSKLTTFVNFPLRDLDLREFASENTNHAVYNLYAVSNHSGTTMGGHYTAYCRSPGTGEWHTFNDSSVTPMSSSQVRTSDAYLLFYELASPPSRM
# USP7 [4] = biological target: T2, USP7
# SENP2 [5] = biological target: T1, SENP2
# USP2 [6] = biological target: T3, USP2
EC50 (SENP2 [1]) [mM],EC50 (USP7 [2]) [mM],EC50 (USP2 [3]) [mM],EC50 (USP7 [4]) [µM],EC50 (SENP2 [5]) [µM],EC50 (USP2 [6]) [µM],Compound
1.3 ± 0.2,1.4 ± 0.07,1.9 ± 0.2,–,–,–,CCN1C(=O)C=CC1=O [N‐Ethylmaleimide]
–,–,–,37 ± 1,9.8 ± 1.8,45 ± 4,Cc1ccc(/C=C2\CNC/C(=C\c3ccc(C)cc3)C2=O)cc1 [NSC 632839]
